≈ marks a conversion by molar mass, not a printed value. Where a SMILES comes first, the peptide text is derived from it. Bridges are numbered along the chain shown (N, C = ends). [ ]: non-standard residue; d: D form. The star is where a group is joined. X1 = CC[C@H](C)CCCCC(=O)*; Dab = NCC[C@H](N)C(=O)O
Tests used:
P. aeruginosa ATCC 10145 = test: microbe, parasite or virus in culture; conditions: n = 2
Protocol: (§1) A positive control of a row of just the bacteria and a negative control of only the medium were included for every plate tested.
(§2) The compounds along with standard antibiotics were serially diluted 2-fold across the 96-well plates. […] A sample of each culture was then diluted 40-fold in fresh MH broth (in presence and absence of Tween) and incubated at 37°C for 2 to 3 h.

K. pneumoniae ATCC 13883 = test: microbe, parasite or virus in culture; conditions: n = 2
Protocol: as §1, §2

A. baumannii ATCC 19606 = test: microbe, parasite or virus in culture; conditions: n = 2
Protocol: as §1, §2

[1] = literature values, reference given; cited from earlier work
Description: Other assay additives can affect MIC values. […] Plasma protein binding has been implicated as a major factor limiting the active free concentration of many clinically important antibiotics ([37][–][42]).

E. coli = conditions: literature value; cited from earlier work
E. coli ATCC 25922 = test: microbe, parasite or virus in culture
Protocol: as §1, §2
For experiments in the presence of surfactant, 2% beractant (25 mg/ml) was added to the mid-log-phase cultures and mixed gently and added to all the 96-well plates. For experiments in the presence of serum, a mixture of 50% of human serum along with 50% MHB was prepared and used throughout the experiment.

over 200 strains = conditions: 0.002% polysorbate added; cited from earlier work
Description: Members of the lipopeptide polymyxin class of antibiotics (polymyxin B [compound 7a] and polymyxin E [or colistin, compound 7b]) are important last-line therapeutic agents against many multidrug-resistant Gram-negative bacteria ([27][–][31]). They consist of an N-terminal fatty acid side chain that is attached to a polycationic deca-peptide backbone (Fig. 1) with physicochemical properties similar to those of the lipoglycopeptides. These structural features confer amphipathicity, which is a key feature of many other cationic antimicrobial peptides (CAMPs) ([32][–][34]). As mentioned earlier, p ...

CC[C@H](C)CCCCC(=O)N[C@@H](CCN)C(=O)N[C@H](C(=O)N[C@@H](CCN)C(=O)N[C@H]1CCNC(=O)[C@H]([C@@H](C)O)NC(=O)[C@H](CCN)NC(=O)[C@H](CCN)NC(=O)[C@H](CC(C)C)NC(=O)[C@@H](Cc2ccccc2)NC(=O)[C@H](CCN)NC1=O)[C@@H](C)O [Polymyxin B, polymyxin B] (X1-[Dab]T[Dab][Dab][Dab][dF]L[Dab][Dab]T; lactam 4-C (inferred); N-terminus assumed)
MIC (P. aeruginosa ATCC 10145; Corning NBS, MHB +T80): 0.03 to 0.125 mg/L
MIC (P. aeruginosa ATCC 10145; Corning NBS, MHB -T80): 0.03 to 0.06 mg/L
MIC (P. aeruginosa ATCC 10145; Corning PS, MHB +T80): 0.5 to 1 mg/L
MIC (P. aeruginosa ATCC 10145; Corning PS, MHB -T80): 0.25 to 1 mg/L
MIC (P. aeruginosa ATCC 10145; Corning TC, MHB +T80): 2 to 4 mg/L
MIC (P. aeruginosa ATCC 10145; Corning TC, MHB -T80): 1 to 4 mg/L
MIC (K. pneumoniae ATCC 13883; Corning NBS, MHB +T80): ≤ 0.03 mg/L
MIC (K. pneumoniae ATCC 13883; Corning NBS, MHB -T80): 0.03 to 0.125 mg/L
MIC (K. pneumoniae ATCC 13883; Corning PS, MHB +T80): 0.03 to 0.06 mg/L
MIC (K. pneumoniae ATCC 13883; Corning PS, MHB -T80): 0.06 to 0.25 mg/L
MIC (K. pneumoniae ATCC 13883; Corning TC, MHB +T80): 1 mg/L (≈ 0.831 µM)
MIC (K. pneumoniae ATCC 13883; Corning TC, MHB -T80): 1 mg/L (≈ 0.831 µM)
MIC (A. baumannii ATCC 19606; Corning NBS, MHB +T80): ≤ 0.03 mg/L
MIC (A. baumannii ATCC 19606; Corning NBS, MHB -T80): ≤ 0.03 mg/L
MIC (A. baumannii ATCC 19606; Corning PS, MHB +T80): ≤ 0.03 mg/L
MIC (A. baumannii ATCC 19606; Corning PS, MHB -T80): 0.06 to 0.125 mg/L
MIC (A. baumannii ATCC 19606; Corning TC, MHB +T80): 2 to 4 mg/L
MIC (A. baumannii ATCC 19606; Corning TC, MHB -T80): 0.5 to 1 mg/L
protein binding [1]: 50 to 60%
MIC (literature) (E. coli): 0.25–1 ([73]) µg/ml
MIC (E. coli ATCC 25922; Corning NBS, MH + 2% LHB, 2% LS, n = 2): ≤0.03 mg/L
MIC (E. coli ATCC 25922; Corning NBS, MH + 2% LHB, 50% HS, n = 2): ≤0.03 mg/L
MIC (E. coli ATCC 25922; Corning NBS, MH + 2% LHB, no additive, n = 2): ≤0.03 mg/L
MIC (E. coli ATCC 25922; Corning NBS, MH + T80, 2% LS, n = 2): ≤0.03 mg/L
MIC (E. coli ATCC 25922; Corning NBS, MH + T80, 50% HS, n = 2): 0.03 to 0.06 mg/L
MIC (E. coli ATCC 25922; Corning NBS, MH, 2% LS, n = 2): ≤0.03 mg/L
MIC (E. coli ATCC 25922; Corning NBS, MH, 50% HS, n = 2): ≤0.03 mg/L
MIC (E. coli ATCC 25922; Corning PS plate, MHB +0.002% T80, no further additive, n = 2): 0.03 to 0.25 mg/L
MIC (E. coli ATCC 25922; Corning PS plate, MHB −T80, no additive, n = 2): 0.06 mg/L (≈ 0.0499 µM)
MIC (E. coli ATCC 25922; Corning PS, MH + 2% LHB, 2% LS, n = 2): 0.06 mg/L
MIC (E. coli ATCC 25922; Corning PS, MH + 2% LHB, 50% HS, n = 2): 0.03 to 0.06 mg/L
MIC (E. coli ATCC 25922; Corning PS, MH + 2% LHB, no additive, n = 2): 2 to 8 mg/L
MIC (E. coli ATCC 25922; Corning PS, MH + T80, 2% LS, n = 2): 0.06 to 0.125 mg/L
MIC (E. coli ATCC 25922; Corning PS, MH + T80, 50% HS, n = 2): 0.03 to 0.06 mg/L
MIC (E. coli ATCC 25922; Corning PS, MH, 2% LS, n = 2): 0.06 to 0.125 mg/L
MIC (E. coli ATCC 25922; Corning PS, MH, 50% HS, n = 2): ≤0.03 mg/L
MIC (E. coli ATCC 25922; Corning TC plate, MHB +0.002% T80, no further additive, n = 2): 2 mg/L (≈ 1.66 µM)
MIC (E. coli ATCC 25922; Corning TC plate, MHB −T80, no additive, n = 2): 1 to 2 mg/L
MIC (E. coli ATCC 25922; Corning TC, MH + 2% LHB, 2% LS, n = 2): 2 to 8 mg/L
MIC (E. coli ATCC 25922; Corning TC, MH + 2% LHB, 50% HS, n = 2): 4 mg/L
MIC (E. coli ATCC 25922; Corning TC, MH + 2% LHB, no additive, n = 2): 0.125 mg/L
MIC (E. coli ATCC 25922; Corning TC, MH + T80, 2% LS, n = 2): 2 to 4 mg/L
MIC (E. coli ATCC 25922; Corning TC, MH + T80, 50% HS, n = 2): 1 to 4 mg/L
MIC (E. coli ATCC 25922; Corning TC, MH, 2% LS, n = 2): 4 mg/L (≈ 3.32 µM)
MIC (E. coli ATCC 25922; Corning TC, MH, 50% HS, n = 2): 0.25 to 0.5 mg/L
MIC (E. coli ATCC 25922; NBS plates): ≤ 0.03 mg/L
MIC (E. coli ATCC 25922; Nunc PS plate, MHB +0.002% T80, n = 2): 0.03 to 0.06 mg/L
MIC (E. coli ATCC 25922; Nunc PS plate, MHB −T80, n = 2): 0.125 to 0.25 mg/L
MIC (E. coli ATCC 25922; Nunc U TC plate, MHB +0.002% T80, n = 2): 2 to 4 mg/L
MIC (E. coli ATCC 25922; Nunc U TC plate, MHB −T80, n = 2): 1 to 4 mg/L
MIC (E. coli ATCC 25922; Nunc flat TC plate, MHB +0.002% T80, n = 2): 2 mg/L (≈ 1.66 µM)
MIC (E. coli ATCC 25922; Nunc flat TC plate, MHB −T80, n = 2): 1 mg/L (≈ 0.831 µM)
MIC (E. coli ATCC 25922; Trek PS plate, MHB +0.002% T80, no further additive, n = 2): 0.03 to 0.06 mg/L
MIC (E. coli ATCC 25922; Trek PS plate, MHB −T80, no additive, n = 2): 0.06 to 0.125 mg/L
MIC (E. coli ATCC 25922; Trek PS, MH + 2% LHB, 2% LS, n = 2): ≤0.03 mg/L
MIC (E. coli ATCC 25922; Trek PS, MH + 2% LHB, 50% HS, n = 2): ≤0.03 mg/L
MIC (E. coli ATCC 25922; Trek PS, MH + 2% LHB, no additive, n = 2): 0.03 to 0.25 mg/L
MIC (E. coli ATCC 25922; Trek PS, MH + T80, 2% LS, n = 2): 0.03 to 0.06 mg/L
MIC (E. coli ATCC 25922; Trek PS, MH + T80, 50% HS, n = 2): 0.03 to 0.125 mg/L
MIC (E. coli ATCC 25922; Trek PS, MH, 2% LS, n = 2): 0.5 to 1 mg/L
MIC (E. coli ATCC 25922; Trek PS, MH, 50% HS, n = 2): ≤0.03 mg/L
more potent MICs with surfactant present (over 200 strains): 4- to 8 fold
